Assay results as given in patent publication US8609410B2 (priority 2005, dated 2013).

Assays:
Assay type in all cases: cell-based, human
A27L-specific CD8+ CTLs [1] = assay: Induction of A27L-specific CD8+ CTLs by artificial antigen-presenting cells MDA-MB/CD80 co-pulsed with ZOMETA and A27L; conditions: co-pulse 0.01 μM or 1 μM ZOMETA and 2 μg/ml A27L
Description: A human CD80 gene, which was a co-stimulatory molecule, was transfected by a lipofection method in a breast cancer-derived cell line: MDA-MB-231 (class I antigen HLA-A*0201) expressing MHC class I molecules, thus establishing a cell line MDA-MB/CD80 expressing human CD80 stably and constantly in MDA-MB-231 cells.
As a negative control, MDA-MB/CD80 cells that were cultured without adding ZOMETA™ or the antigenic peptides were used.
After about 12 hours of culture, part of the activated MDA-MB/CD80 cells that were co-pulsed with ZOMETA™ and the antigenic peptides were collected, placed in a 15 ml tube (BD Falcon) and centrifuged at 1500 rpm for 5 minutes. The resultant MDA-MB/CD80 cells in the form of pellets were suspended in 10 ml of an AIM-V medium supplemented with 10% FBS and centrifuged at 1500 rpm for 5 minutes, followed by washing. The washing operation was repeated twice. The MDA-MB/CD80 cells collected in this manner were used as stimulating cells. In other words, the activated MDA-MB/CD80 cells that were co-pulsed with bisphosphonate and the disease antigenic peptides, the MDA-MB/CD80 cells that were pulsed with either of them and the MDA-MB/CD80 cells that were not pulsed with any of them were used as stimulating cells. […]

A27L-specific CD8+ CTLs [2] = assay: Induction of A27L-specific CD8+ CTLs by washed pulsed immature dendritic cells co-cultured with lymphocytes (tetramer flow cytometry)
Description: (§1) As a negative control, dendritic cells that were cultured without adding ZOMETA™ or the antigenic peptides were used.
After about 12 hours of culture, part of the activated dendritic cells that were co-pulsed with ZOMETA™ and the antigenic peptides were collected, placed in a 15 ml tube (BD Falcon) and centrifuged at 1500 rpm for 5 minutes. The resultant dendritic cells in the form of pellets were suspended in 10 ml of an AIM-V medium supplemented with 10% FBS and centrifuged at 1500 rpm for 5 minutes, followed by washing. The washing operation was repeated twice. The dendritic cells collected in this manner were used as stimulating cells. In other words, the activated dendritic cells that were co-pulsed with bisphosphonate and the disease antigenic peptides, the dendritic cells that were pulsed with either of them and the dendritic cells that were not pulsed with any of them were used as stimulating cells. […]
After dyeing in a shielded state at room temperature for 15 minutes, an anti-CD8 antibody that was labeled with FITC (BD Pharmingen) was added, followed by dyeing in a shielded state at 4° C. for 15 minutes. […] The cells were measured using EPICS XL.MCL, and the results of measurement were analyzed using EPICS 32.

BMLF1-specific CD8+ CTLs = assay: Induction of BMLF1-specific CD8+ CTLs by dendritic cells co-pulsed with ZOMETA and BMLF1; conditions: for The number of CTLs / The total number of cells / Ratio of CTLs (%): BMLF1 2 μg/ml; for Ratio of CTLs (%): immature dendritic cells, 7 days
Description: as §1
After about 12 hours of the culture, part of the activated dendritic cells that were co-pulsed with ZOMETA™ and the antigenic peptides were collected, placed in a 15 ml tube (BD Falcon) and centrifuged at 1500 rpm for 5 minutes. The resultant dendritic cells in the form of pellets were suspended in 10 ml of an AIM-V medium supplemented with 10% FBS and centrifuged at 1500 rpm for 5 minutes, followed by washing. The washing operation was repeated twice. The dendritic cells collected in this manner were used as stimulating cells. In other words, the activated dendritic cells that were co-pulsed with bisphosphonate and the disease antigenic peptides, the dendritic cells that were pulsed with either of them and the dendritic cells that were not pulsed with any of them were used as stimulating cells. Cells prepared by suspending those (a CD14-negative cell population, which was mainly a T cell population) remaining after isolation of the CD14-positive cells for preparing the dendritic cells in an AIM-V medium supplemented with 10% FBS and 10% dimethyl sulfoxide (DMSO), and freeze-preserving them were thawed, washed and used as responding cells. 1×10^5 each of the obtained stimulating cells (dendritic cells) were cultured with 1×10^6 responding cells such that the total amount was 1 ml in a 48-well plate (CORNING) (responding cells:dendritic cells=10:1). The co-culture was carried out at about 37° C. under a condition of 5% CO2 for 7 days. […] In the case where the cells were proliferated rapidly, 1 ml of an AIM-V medium supplemented with 40 U/ml of IL-2 and 10% FBS was added on day 4 to day 6.
After dyeing in a shielded state at room temperature for 15 minutes, an anti-CD8 antibody that was labeled with FITC (BD Pharmingen) was added, followed by dyeing in a shielded state at 4° C. for 15 minutes. As a control, an isotype of each of the antibodies was used. The cells were measured using EPICS XL.MCL, and the results of measurement were analyzed using EPICS 32.

IFN-γ producing cells = assay: IFN-γ ELISPot of co-cultured immunocytes
Description: 70% ethanol was added to each well of MultiScreen plate (MILLIPORE) and removed within 2 minutes. Each well of the above-noted plate was washed five times in 200 μl of PBS. […] This plate was left overnight at 4° C. This plate was washed four times in 200 μl/well of PBS. Then, 200 μl of an AIM-V medium supplemented with 10% FBS was added in each well, followed by blocking at room temperature for at least 30 minutes. The blocking medium was removed, and the plate was washed four times in 200 μl/well of PBS. A co-cultured cell population in each condition obtained by a method similar to the above-described co-culture was collected by centrifugation and washed twice in AIM-V.
The number of cells indicates the number per well of an assay plate. […] The culture volume was adjusted to be 100 μl per well. For each culture condition, 300 μl of culture, which corresponds to 3 wells, was performed. 100 μl per well of the cells pre-cultured under each condition was added into 3 wells in the plate that had been washed in PBS after blocking, and cultured overnight at 37° C. under a condition of 5% CO2. The cultured cells were removed from the wells and washed five times in 200 μl/well of PBS. […] The plate was allowed to stand still at room temperature for 2 hours. This plate was washed five times in 200 μl/well of PBS. Streptavidin to which alkaline phosphatase was bound (MABTECH ELISPot™ for Human Interferon-γ kit) was diluted with PBS supplemented with 0.5% FBS so that 1:1000, and 100 μl thereof per well was added. The plate was left at room temperature for 1 hour. This plate was washed five times in 200 μl/well of PBS. Then, 100 μl of BCIP/NBTplus substrate solution (Wako) was added per well, which was left in a dark place until spots became visible. When the spots became visible to the naked eye, the plate was washed sufficiently in distilled water. After checking that a membrane in the plate is dry, the number of spots were measured using ELISPot™ reader (AID Autoimmun Diagnostika GmbH), and the data were analyzed with AID software version 3.1 (AID).

[3] = system: A27L antigen-specific CD8+ CTLs; assay: Induction of A27L-specific CD8+ CTLs by dendritic cells co-pulsed with ZOMETA and apoptotic melanoma cells
Description: From a healthy donor, 200 ml of peripheral blood was collected. Mononuclear cells were obtained from this peripheral blood of the healthy donor. At this time, a mononuclear cell layer was collected using a density gradient solution for blood cell separation. After several times of washing in order to remove platelets, etc. from the collected cells, CD14-positive cells were isolated as monocytes with MACS. From the obtained dendritic cell precursors, differentiation induction of dendritic cells was carried out. The medium was prepared by adding 500 U/ml of GM-CSF (IMMUNEX) and 500 U/ml of IL-4 (Osteogenetics GmbH) to AIM-V supplemented with 10% FBS. On day 5 to day 7 after starting culture, immature dendritic cells were obtained.
A cancer cell line derived from MART-1-positive melanoma was collected, placed in a 15 ml tube (BD Falcon) and centrifuged at 1500 rpm for 5 minutes. […]
Using the number of all lymphocytes that were proliferated 7, 11 and 14 days after the start of co-culture, a labeled antibody and an antigen-specific tetramer, the ratio of the antigen-specific CD8+ CTLs in all of the lymphocytes was measured with a flow cytometer. […] The cells were measured using EPICS XL.MCL, and the results of measurement were analyzed using EPICS 32.

## O=P(O)(O)C(O)(Cn1ccnc1)P(=O)(O)O [ZOMETA ™, zoledronate sodium hydrate]
A27L-specific CD8+ CTLs [1]
  ratio of antigen-specific CD8+ CTLs versus MDA-MB/CD80 cells pulsed with peptides alone: about 6 times
A27L-specific CD8+ CTLs [2]; co-pulse 0.01 μM ZOMETA and 2 μg/ml A27L
  ratio of antigen-specific CD8+ CTLs versus dendritic cells pulsed with peptides alone: about 4 times
A27L-specific CD8+ CTLs [2]; immature dendritic cells, ZOMETA 0.01 μM and/or A27L 2 μg/ml, 7 days co-culture
  Ratio (%) of disease antigen-specific CD8+ CTLs: 0.00%
BMLF1-specific CD8+ CTLs; ZOMETA 0.01 μM
  The number of CTLs: 10845
  The total number of cells: 2.01 × 10^6
  Ratio of CTLs (%): 0.54%
BMLF1-specific CD8+ CTLs; ZOMETA 0.1 μM
  The number of CTLs: 12130
  The total number of cells: 2.17 × 10^6
  Ratio of CTLs (%): 0.56%
BMLF1-specific CD8+ CTLs; ZOMETA 1 μM
  The number of CTLs: 11389
  The total number of cells: 1.96 × 10^6
  Ratio of CTLs (%): 0.58%
BMLF1-specific CD8+ CTLs; ZOMETA 5 μM
  The number of CTLs: 21266
  The total number of cells: 2.84 × 10^6
  Ratio of CTLs (%): 0.75%
BMLF1-specific CD8+ CTLs; ZOMETA 20 μM
  The number of CTLs: 21133
  The total number of cells: 2.94 × 10^6
  Ratio of CTLs (%): 0.72%
BMLF1-specific CD8+ CTLs; co-pulse ZOMETA 0 to 20 μM and BMLF1
  ratio of antigen-specific CD8+ CTLs versus dendritic cells pulsed with peptides alone: about 3.2 times
IFN-γ producing cells; Donor A, Lymphocytes + dendritic cells pulsed with peptides (re-stimulation)
  The number of IFN-γ producing cells in all of 2500 lymphocytes: 100
IFN-γ producing cells; Donor A, Lymphocytes alone (no re-stimulation)
  The number of IFN-γ producing cells in all of 2500 lymphocytes: 4
IFN-γ producing cells; Donor B, Lymphocytes + dendritic cells pulsed with peptides (re-stimulation)
  The number of IFN-γ producing cells in all of 2500 lymphocytes: 50
IFN-γ producing cells; Donor B, Lymphocytes alone (no re-stimulation)
  The number of IFN-γ producing cells in all of 2500 lymphocytes: 0
[3]; day 11, versus apoptotic cells alone
  increase of tetramer-positive cells by the addition of ZOMETA: about 15 times
[3]; day 11 of culture, ZOMETA 0.01 μM, apoptotic MART-1-positive melanoma cells
  Ratio of CD8+ CTLs (%), A27L-specific: 0.14%
